Experimental data taken from paper PMC2225439, “Amyloid as a Depot for the Formulation of Long-Acting Drugs” (PLoS Biology, 2008).

Experiments:
[1] = Congo red (CR) binding; format: physicochemical; design: key to Congo Red: b, binding; n, not binding; conditions: analogs incubated for 30 d; for Congo Red: 1 mg/ml in 5% D-mannitol, 0.01% sodium azide, room temperature, UV 300–700 nm and by eye, three independent experiments
Description: To confirm amyloid formation by GnRH analogs, CR binding was measured. CR, like Thio T, is a dye routinely used to detect β-sheet–rich assemblies. CR binding can be measured by the “red shift” change of its absorption maximum from 490 to 540 nm, by an increase of the dye's molar absorptivity, and in favorable cases by eye. All three types of measurements were performed with GnRH analogs incubated for 30 d. […] However, five short-acting GnRH analogs, i.e., S3, S4, S6, S10, and S11, bind CR, showing that some short-acting GnRH-analogs are able to form amyloids after prolonged incubation (see also below). In contrast to short-acting analogs, all long-acting analogs bind CR.
(§1) GnRH analogs were dissolved in a glass tube in 1 ml of 5% D-mannitol and 0.01% sodium azide at a concentration of 1 mg/ml. The GnRH analogs were then incubated at room temperature without stirring. The fibril formation was monitored by EM, CR, and time-resolved by Thio T binding studies. Three independent experiments were performed for each sample.
A 5-μl aliquot of peptide sample was mixed with 80 μl of PBS buffer containing 10% ethanol. Then 15 μl of a 100 μM CR solution (filtered through 0.2-μm filter) in PBS containing 10% ethanol was added. After mixing, UV was measured from 300–700 nm. For the measurement of the CR-only spectrum, 15 μl of CR solution with 85 μl of PBS containing 10% ethanol was prepared. As a control, a 5-μl aliquot of GnRH analog mixed with 95 μl of PBS containing 10% ethanol was measured. Three independent experiments were performed for each sample. In addition to the UV measurements, pictures of the cuvette containing the peptide sample and CR were taken to visually show the CR binding to the amyloids.

[2] = test system: plasma luteinizing hormone (LH) levels; conditions: cited from earlier work; for Action: duration of action class as listed in Table 1, castrated male rat assay, ref Tables S1 and S2
Text: Table 1 Biochemical and Biophysical Properties of Aggregates By GnRH-Analogs | column: Action || Supplement pbio.0060017.st001.doc, table 1: Table S1: Short acting GnRH analogs with their duration of action | column: Duration of action^b || Supplement pbio.0060017.st002.doc, table 1: Table S2: Long acting GnRH analogs with their duration of action | column: Duration of action^b || (+ 2 further places)

[3] = Thio T binding (amyloid fibril formation); format: physicochemical; design: key to Thio T Binding: b, binding; n, not binding; conditions: 1 mg/ml in 5% D-mannitol, 0.01% sodium azide, room temperature without stirring, monitored daily over 21 d; fluorescence ex 450 nm / em 482 nm; three independent experiments
Description: The kinetics of fibril formation in vitro is generally a slow process over several days or weeks, and can be monitored by the increase of fluorescence intensity of the cross-β-sheet–sensitive dye, Thio T [15]. Thio T fluorescence is thereby insignificant during the initial incubation period of amyloid aggregation due to the nonexistence of Thio T–sensitive β-sheet aggregates. After the initial phase, a time-dependent increase of fluorescence intensity is observed until a maximum intensity is reached, at which time maximal fibril formation has occurred. […] For the Thio T binding studies, all GnRH analogs were incubated at room temperature at a concentration of 1 mg/ml in 5% D-mannitol, conditions identical to the formulation used in the animal experiments. In addition, 0.01% sodium azide was added. The Thio T fluorescence was monitored daily for all analogs over a period of 21 d (Figure 1).
as §1
A 10-μl aliquot of peptide sample was diluted into 500 μl of water with 5% D-mannitol containing 0.01% (w/v) sodium azide. The solution was mixed with 10 μl of 1 mM Thio T prepared in the same solution. Fluorescence was measured immediately after addition of Thio T. The experiment was measured on a spectrofluorimeter (Photon Technology International) with excitation at 450 nm and emission at 482 nm. The fluorescence intensity at 482 nm was plotted against incubation time (day). A rectangular 10-mm quartz microcuvette was used. Three independent experiments were performed for each sample.

[4] = Peptide release from amyloid (dialysis experiment); conditions: for KD: dissociation constant of the aggregates = final monomer concentration, 200 μl of 30-d-old analog dialyzed against 4 ml 5% D-mannitol, fluorescence ex 280 nm
Description: Although amyloid fibrils are very stable, they must follow thermodynamic equilibrium conditions between fibril and monomer. […] A total of 200 μl of 30-d-old GnRH analog (in) was dialyzed 4 ml of 5% D-mannitol (out). A 3.5-kDa cutoff, which is twice the size of the peptides studied, was chosen to ensure that the released particles are most likely monomeric. The peptide release and the remaining aggregates were monitored by fluorescence over 35 d at room temperature.
A 200-μl aliquot of aged GnRH in solution conditions given above was transferred into a 0.6-ml Eppendorf tube with a hole in the cap. To study the effect of heparin on peptide release, a mixture of hormone analog and heparin (1:1 v/v) was incubated overnight in parallel with a half-diluted peptide fibril sample in 5% D-mannitol and 0.01% sodium azide. The hole in the cap of the Eppendorf tube was sealed with a 3.5-kDa molecular weight cutoff (MWCO) membrane. Next, the Eppendorf tube was inserted upside down into a 15-ml Falcon tube containing 4 ml of 5% D-mannitol in water and 0.01% sodium azide. Care was taken to make sure that the membrane was exposed to solutions both in and outside and that any bubbles at the membrane interface were removed. The tubes were then incubated at room temperature. To measure the remaining peptide concentration inside the 0.6-ml Eppendorf tube, a 5-μl aliquot was diluted into 500 μl water with 5% D-mannitol, 0.01% sodium azide, and the fluorescence was measured with excitation at 280 nm and emission in the range of 290–500 nm. The excitation slit width was 2 nm, and emission slit width was 11 nm. To determine the peptide concentration outside the membrane in the 15-ml tube, an aliquot of 250 μl of solution was taken from the releasing medium, diluted into 500 μl final volume by 5% D-mannitol, 0.01% sodium azide, and fluorescence was measured. Following spectra recording, the dialysis system was reassembled as described above. […] The normalized intensity maxima from inside and outside the membrane were plotted as a function of time and fit by an exponential function to extract the half-life of the fibrils and the K off, respectively. […] The extracted half-life, t 1/2, is the time taken, during which the fluorescence signal inside the 0.6-ml Eppendorf tube drops by 50%.

[5] = Electron microscopy of negative-stained samples; format: physicochemical; design: key to EM^8 / EM^30: fib, fibrils; nfib, no fibrils; conditions: for EM, formation of amyloid-like fibrils at day 30 (in words): 30 d of incubation; for EM^8: electron microscopy at day 8 of incubation; for EM^8 / EM^30: 1 mg/ml in 5% D-mannitol, room temperature, at least two independent experiments; for EM^30: electron microscopy at day 30 of incubation
Description: To formally determine the formation of amyloid fibrils by GnRH analogs and to characterize other possible assemblies present in the sample, EM was done on all of the GnRH analogs. Since the EM analysis is for a qualitative interpretation only, amyloid fibrils and other small aggregates might be observed under the electron microscope even if only a minority of the sample forms fibrils. Samples were studied after 8 and 30 d of incubation. […] The fibrils show a wide variety of morphologies, comprising helical ultrastructures with varying degrees of lateral association. Furthermore, the fibrils are composed of one or more filaments, resulting in overall diameters ranging from approximately 6 to 12 nm. No oligomers are observed for the long-acting compounds at day 8 or at day 30 (Figures 2 and S2).
as §1
A 5-μl aliquot of peptide sample was diluted into 50 μl of water to a peptide concentration of approximately 50 μM, spotted on a glow-discharged, carbon-coated Formvar grid (Electron Microscopy Sciences), incubated for 5 min, washed with distilled water, and then stained with 1% (w/v) aqueous uranyl formate solution. Uranyl formate solutions were filtered through 0.2-μm sterile syringe filters (Corning) before use. EM analysis was performed using a JEOL JEM-100CXII electron microscope at 80 kV with nominal magnifications between 36,000 and 72,000. Images were recorded digitally by using the SIS Megaview III imaging system. At least two independent experiments were carried out for each sample.

[6] = test system: mouse embryo fibroblast cells; test: LDH release assay; format: cell-based; conditions: 1 μM Aβ(1–40); triplicate
Text: Since amyloid fibrils can be toxic to cells and are associated with several neurological diseases, it is a concern whether or not amyloid fibrils of GnRH analogs are able to generate a toxic response as well. To measure the potential toxicity of GnRH analogs, we used the lactate dehydrogenase (LDH) release assay for cell killing. The LDH release assay is a widely used assay to determine the cytotoxicity of chemicals or environmental toxic factors. LDH is a soluble cytosolic enzyme that is released into the culture medium following the loss of membrane integrity. For the LDH assay, we used mouse embryo fibroblast cells and aged peptide samples at 60 μM in 5% D-mannitol.
For the LDH assay, we used mouse embryo fibroblast cells and peptide fibrils at 60 μM final concentration in 5% D-mannitol. For the buffer control, we used 5% D-mannitol in water. We also used 1 μM Aβ(1–40) and a cell lysate to compare our data. The assay was done using a kit (Sigma) as described by the manufacturer. The assays were done in triplicate and the data presented as the standard error of the mean.

[7] = dialysis, 3.5-kDa cutoff, room temperature, 35 d
[8] = half-life of fibrils: time in which fluorescence inside drops by 50%, dialysis of 30-d-old analog, 3.5-kDa MWCO, 5% D-mannitol, room temperature, 35 d, exponential fit, 2 d = intrinsic diffusion of monomer
[9] = 3.5-kDa MWCO, room temperature, 35 d

Compound	Congo Red [1]	Thio T Binding [3]	time to reach equilibrium of fluorescence inside and outside of the membrane ([4]; dialysis, 3.5-kDa cutoff, room temperature) [days]	t1/2 [4, 8]	EM^8 [5]	EM^30 [5]	KD [4, 9] [nM]	duration of action ([2]; ref [29],[30])	K off [4, 7]	t1/2 [4, 7]	EM, formation of amyloid-like fibrils at day 30 (in words) [5]	Action [2]	toxicity (LDH release) [6]	CR binding (in words) [1]	stability of fibrils from release profile (in words) ([4]; dialysis of 30-d-old samples, 35 d)	Koff ([4]; monomer release from aggregates, dialysis of 30-d-old analog, 3.5-kDa MWCO, 5% D-mannitol, room temperature, 35 d, exponential fit)	EM, formation of amyloid-like fibrils at day 8 (in words) ([5]; 8 d of incubation)
Ac-Agl(2-Napht)-DCpa-DPal-Ser-Aph(Ac)-DAph(Ac)-Leu-ILys-Pro-DAla-NH2 [L21]	b	b	–	840 h	fib	fib	2000	–	–	–	–	intermediate	–	–	–	–	–
Ac-DNal-DCpa-DPal-Ser-Aph(Ac)-DAph(Ac)-Leu-Agl(Me,IβAla)-Pro-DAla-NH2 [L22]	b	b	–	672 h	fib	fib	7000	–	–	–	–	medium	–	–	–	–	–
Aβ(1–40): amyloid peptide Aβ(1–40), used as positive control in the LDH release assay	–	–	–	–	–	–	–	–	–	–	–	–	neither the peptide analog samples nor Aβ(1–40) generated toxicity	–	–	–	–
des-Ac-[DAph(CONHOCH3)6]Peg-degarelix [S10]	b	b	–	≫35 day	fib	fib	1000	–	< 2 × 10^−7 S^−1	over 35 d	form amyloid-like fibrils	–	–	bind CR	form very stable amyloids with very little peptide release	≪2 × 10^−7 s^−1	form amyloid-like fibrils

Further lines, with some results ahead:

Congo Red [1]	Thio T Binding [3]	time to reach equilibrium of fluorescence inside and outside of the membrane ([4]; dialysis, 3.5-kDa cutoff, room temperature) [days]	t1/2 [4, 8]	EM^8 [5]	EM^30 [5]	KD [4, 9] [nM]	Compound	duration of action ([2]; ref [29],[30])	K off [4, 7]	t1/2 [4, 7]	EM, formation of amyloid-like fibrils at day 30 (in words) [5]	Action [2]	toxicity (LDH release) [6]	CR binding (in words) [1]	stability of fibrils from release profile (in words) ([4]; dialysis of 30-d-old samples, 35 d)	Koff ([4]; monomer release from aggregates, dialysis of 30-d-old analog, 3.5-kDa MWCO, 5% D-mannitol, room temperature, 35 d, exponential fit)	EM, formation of amyloid-like fibrils at day 8 (in words) ([5]; 8 d of incubation)
n	n	≤ 3	48 h	nfib	nfib	–	CC(C)C[C@H](NC(=O)CNC(=O)[C@H](Cc1ccc(O)cc1)NC(=O)[C@H](CO)NC(=O)[C@H](Cc1c[nH]c2ccccc12)NC(=O)[C@H](Cc1c[nH]cn1)NC(=O)[C@@H]1CCC(=O)N1)C(=O)N[C@@H](CCCNC(=N)N)C(=O)N1CCC[C@H]1C(=O)NCC(N)=O [S12, reference compound]	a few hours	approximately 4 × 10^−6 S^−1	approximately 2 d	do not form any detectable amyloid-like fibrils	–	–	–	–	–	–
n	n	–	48 h	nfib	nfib	–	Ac-Agl(Me,2-Napht)-DCpa-DPal-Ser-Aph(Ac)-DAph(Ac)-Leu-ILys-Pro-DAla-NH2 [S8]	–	–	–	do not form any detectable amyloid-like fibrils	very short	–	–	–	–	–
n	n	–	48 h	nfib	nfib	–	Ac-DNal-DCpa-DPal-Ser-D,LAgl(Me,acetylamino)benzoyl-DAph(Ac)-Leu-ILys-Pro-DAla-NH2 [S9]	–	–	–	do not form any detectable amyloid-like fibrils	very short	–	–	–	–	–
